Assay results: patent publication US8513422B2, “Piperidine derivative” (Astellas Pharma Inc., priority 2007, dated 2013)

target: T1, human 17βHSD type 5 (Homo sapiens, UniProt P42330); assay: Measurement of enzyme activity of human 17βHSD type 5 (testosterone production from androstenedione, DELFIA); type: biochemical; conditions: purified enzyme 10 μg/mL, androstenedione 300 nM, NADPH 200 μM, pH 6.0, room temperature, 2 hours
T1 construct: A full-length cDNA encoding human 17βHSD type 5 used in the pharmacological test of the present invention; made in house; host or cells: Escherichia coli BL21
T1 sequence (P42330 1-323): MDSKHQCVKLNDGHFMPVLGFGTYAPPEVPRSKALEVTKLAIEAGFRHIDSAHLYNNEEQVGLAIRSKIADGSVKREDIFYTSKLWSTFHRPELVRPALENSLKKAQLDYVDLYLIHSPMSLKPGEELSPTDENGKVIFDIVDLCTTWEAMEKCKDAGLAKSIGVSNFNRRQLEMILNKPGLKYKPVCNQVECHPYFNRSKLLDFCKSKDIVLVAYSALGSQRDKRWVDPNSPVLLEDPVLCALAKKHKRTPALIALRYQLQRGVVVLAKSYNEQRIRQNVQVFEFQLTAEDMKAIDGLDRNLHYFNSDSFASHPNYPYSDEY
Source text: A full-length cDNA encoding human 17βHSD type 5 used in the pharmacological test of the present invention was obtained by the PCR method using a cDNA derived from a human lung cancer-derived cell line, A549 cells as a template. […] Escherichia coli BL21 was transformed with a plasmid containing the cDNA and cultured on a large scale. The proteins were purified by using GSTrapFF column (manufactured by Amersham) and PreScissionProtease (manufactured by Amersham). The purification method was carried out in accordance with the instructions attached to the GSTrapFF column.
The measurement was performed in accordance with the attached instructions. The amount of reduction of testosterone production in the presence of the compound was obtained as a relative value with respect to the amount of testosterone in the absence of the enzyme set at 0% and the amount of testosterone produced in the absence of the compound set at 100%. Then, IC50 values were calculated by the Logistic regression method.

IC50 [nM] | Compound
4.5 | CC(C)(O)CC1CCN(C(=O)c2cc3cc(Cl)ccc3[nH]2)CC1 [Example 1, 1-{1-[(5-chloro-1H-indol-2-yl)carbonyl]piperidin-4-yl}-2-methylpropan-2-ol]
130 | CC(C)(O)CC1CCN(C(=O)c2cc3ccccc3[nH]2)CC1 [Example 9, 1-[1-(1H-indol-2-ylcarbonyl)piperidin-4-yl]-2-methylpropan-2-ol]
15 | CC(C)(O)CC1CCN(C(=O)c2cc3cc(O)ccc3[nH]2)CC1 [Example 15, 2-{[4-(2-hydroxy-2-methylpropyl)piperidin-1-yl]carbonyl}-1H-indol-5-ol]
390 | Cc1ccc2[nH]c(C(=O)N3CCC(CC(C)(C)O)CC3)c(C)c2c1 [Example 17, 1-{1-[(3,5-dimethyl-1H-indol-2-yl)carbonyl]piperidin-4-yl}-2-methylpropan-2-ol]
15 | CC(C)(O)CC1CCN(C(=O)c2cc3cc([N+](=O)[O-])ccc3[nH]2)CC1 [Example 20, 2-methyl-1-{1-[(5-nitro-1H-indol-2-yl)carbonyl]piperidin-4-yl}propan-2-ol]
21 | Cc1ccc2[nH]c(C(=O)N3CCC(CCO)CC3)cc2c1 [Example 22, 2-{1-[(5-methyl-1H-indol-2-yl)carbonyl]piperidin-4-yl}ethanol]
150 | Cc1ccc2[nH]c(C(=O)N3CCC(CC(C)(C)O)CC3)cc2c1 [Example 24, 2-methyl-1-{1-[(5-methyl-1H-indol-2-yl)carbonyl]piperidin-4-yl}propan-2-ol]
26 | CC(O)CC1CCN(C(=O)c2cc3ccccc3[nH]2)CC1 (stereo not drawn) [Example 30, 1-[1-(1H-indol-2-ylcarbonyl)piperidin-4-yl]propan-2-ol]

target: T2, human 17βHSD type 3 (Homo sapiens, UniProt P37058); assay: Measurement of enzyme activity of human 17βHSD type 3; type: biochemical; conditions: supernatant of transformed 293 cells as enzyme source
T2 construct: A full-length cDNA encoding human 17βHSD type 3 used in the pharmacological test of the present invention; expressed in transfected cells; host or cells: 293 cells (human fetus kidney-derived); supernatant of disrupted cells
T2 sequence (P37058 1-310): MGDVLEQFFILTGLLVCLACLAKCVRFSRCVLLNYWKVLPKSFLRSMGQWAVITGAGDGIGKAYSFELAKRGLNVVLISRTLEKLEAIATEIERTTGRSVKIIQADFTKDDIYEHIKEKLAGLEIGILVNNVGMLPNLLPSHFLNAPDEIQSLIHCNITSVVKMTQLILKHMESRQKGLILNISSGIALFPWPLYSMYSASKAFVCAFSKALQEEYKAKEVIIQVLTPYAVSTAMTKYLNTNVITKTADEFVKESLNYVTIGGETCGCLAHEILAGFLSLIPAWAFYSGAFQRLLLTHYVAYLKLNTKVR
Description: A full-length cDNA encoding human 17βHSD type 3 used in the pharmacological test of the present invention was obtained by the PCR method using a cDNA derived from human testis as a template. The nucleotide sequence of the obtained cDNA was analyzed by the dideoxyterminator method, and the clone matched with the known human 17βHSD type 3 sequence (GenBank accession No. BC034281) was selected. Subsequently, human fetus kidney-derived cell line, 293 cells, were transformed with a plasmid containing the cDNA, and the cells were collected 24 hours later. The collected cells were then disrupted in a phosphate buffer solution containing 5% glycerol (500 μL per 100 mm-dish of a phosphate buffer solution (pH 7.4, 200 mM) containing 5% glycerol) and centrifuged (16000 rpm, 5 min, 4° C.), and the supernatant was used as an enzyme source.
Enzyme activity was measured referring to Trevor M. Penning, et al., Biochem. J., 351, 67-77, (2000). Specifically, using a 100 mM potassium phosphate buffer (pH 6.0), (1) the enzyme purified in section 1 above at a final concentration of 10 μg/mL, (2) androstenedione at a final concentration of 300 nM, (3) NADPH at a final concentration of 200 μM, and (4) a test substance, were mixed to react at room temperature for 2 hours, and then the amount of testosterone produced was measured using DELFIA (registered trademark) Testosterone Reagents R050-201 (manufactured by PerkinElmer). The measurement was performed in accordance with the attached instructions. The amount of reduction of testosterone production in the presence of the compound was obtained as a relative value with respect to the amount of testosterone in the absence of the enzyme set at 0% and the amount of testosterone produced in the absence of the compound set at 100%. Then, IC50 values were calculated by the Logistic regression method.

IC50 [µM] | Compound
> 10 | CC(C)(O)CC1CCN(C(=O)c2cc3cc(Cl)ccc3[nH]2)CC1 [Example 1, 1-{1-[(5-chloro-1H-indol-2-yl)carbonyl]piperidin-4-yl}-2-methylpropan-2-ol]
> 10 | CC(C)(O)CC1CCN(C(=O)c2cc3ccccc3[nH]2)CC1 [Example 9, 1-[1-(1H-indol-2-ylcarbonyl)piperidin-4-yl]-2-methylpropan-2-ol]
> 10 | CC(C)(O)CC1CCN(C(=O)c2cc3cc(O)ccc3[nH]2)CC1 [Example 15, 2-{[4-(2-hydroxy-2-methylpropyl)piperidin-1-yl]carbonyl}-1H-indol-5-ol]
> 10 | Cc1ccc2[nH]c(C(=O)N3CCC(CC(C)(C)O)CC3)c(C)c2c1 [Example 17, 1-{1-[(3,5-dimethyl-1H-indol-2-yl)carbonyl]piperidin-4-yl}-2-methylpropan-2-ol]
> 10 | CC(C)(O)CC1CCN(C(=O)c2cc3cc([N+](=O)[O-])ccc3[nH]2)CC1 [Example 20, 2-methyl-1-{1-[(5-nitro-1H-indol-2-yl)carbonyl]piperidin-4-yl}propan-2-ol]
> 10 | Cc1ccc2[nH]c(C(=O)N3CCC(CCO)CC3)cc2c1 [Example 22, 2-{1-[(5-methyl-1H-indol-2-yl)carbonyl]piperidin-4-yl}ethanol]
> 10 | Cc1ccc2[nH]c(C(=O)N3CCC(CC(C)(C)O)CC3)cc2c1 [Example 24, 2-methyl-1-{1-[(5-methyl-1H-indol-2-yl)carbonyl]piperidin-4-yl}propan-2-ol]
> 10 | COc1ccc2[nH]c(C(=O)N3CCC(CC(C)(C)O)CC3)cc2c1 [Example 25, 1-{1-[(5-methoxy-1H-indol-2-yl)carbonyl]piperidin-4-yl}-2-methylpropan-2-ol]
> 10 | CC(O)CC1CCN(C(=O)c2cc3ccccc3[nH]2)CC1 (stereo not drawn) [Example 30, 1-[1-(1H-indol-2-ylcarbonyl)piperidin-4-yl]propan-2-ol]

target: T3, LNCaP cells expressing human 17βHSD type 5 (Homo sapiens, UniProt P42330); assay: Cell growth capability using LNCaP cells expressing human 17βHSD type 5 (CellTiter-Glo); type: cell-based; conditions: androstenedione 10 nM, culturing for 7 days; read-out: LNCaP-17β5 IC50 (cell growth inhibitory activity)
T3 sequence (P42330 1-323): T1 sequence (P42330 1-323)
Description: LNCaP cells of the human prostate cancer-derived cell line were transformed with a plasmid containing the clone selected in section 1 above and then a cell line showing stable expression was obtained.
9000 cells/well of the transformed cells obtained in section 4 above were seeded in a 96-well plate and cultured overnight. Then, androstenedione, in conjunction with a test compound, was added thereto at a final concentration of 10 nM, followed by culturing for 7 days. After the culturing, number of the cells was counted using a CellTiter-Glo (registered trademark) Luminescent Cell Viability Assay (Promega). The CellTiter-Glo (registered trademark) Luminescent Cell Viability Assay is a reagent that measures the number of the cells by monitoring an intracellular ATP level from the luminescence intensity by luciferase. The experimental manipulation was carried out in accordance with the attached instructions. The cell growth inhibitory activity in the presence of a test compound was calculated as a relative value with respect to the number of the cells in the absence of androstenedione set at proliferation of 0%, and the number of the cells in the presence of androstenedione and in the absence of the test compound set at proliferation of 100%. Then, IC50 values were calculated by the Logistic regression method.

GI50 [nM] | Compound
8.9 | CC(C)(O)CC1CCN(C(=O)c2cc3cc(Cl)ccc3[nH]2)CC1 [Example 1, 1-{1-[(5-chloro-1H-indol-2-yl)carbonyl]piperidin-4-yl}-2-methylpropan-2-ol]
10 | CC(C)(O)CC1CCN(C(=O)c2cc3ccccc3[nH]2)CC1 [Example 9, 1-[1-(1H-indol-2-ylcarbonyl)piperidin-4-yl]-2-methylpropan-2-ol]
18 | CC(C)(O)CC1CCN(C(=O)c2cc3cc(O)ccc3[nH]2)CC1 [Example 15, 2-{[4-(2-hydroxy-2-methylpropyl)piperidin-1-yl]carbonyl}-1H-indol-5-ol]
20 | Cc1ccc2[nH]c(C(=O)N3CCC(CC(C)(C)O)CC3)c(C)c2c1 [Example 17, 1-{1-[(3,5-dimethyl-1H-indol-2-yl)carbonyl]piperidin-4-yl}-2-methylpropan-2-ol]
29 | CC(C)(O)CC1CCN(C(=O)c2cc3cc([N+](=O)[O-])ccc3[nH]2)CC1 [Example 20, 2-methyl-1-{1-[(5-nitro-1H-indol-2-yl)carbonyl]piperidin-4-yl}propan-2-ol]
60 | Cc1ccc2[nH]c(C(=O)N3CCC(CCO)CC3)cc2c1 [Example 22, 2-{1-[(5-methyl-1H-indol-2-yl)carbonyl]piperidin-4-yl}ethanol]
24 | Cc1ccc2[nH]c(C(=O)N3CCC(CC(C)(C)O)CC3)cc2c1 [Example 24, 2-methyl-1-{1-[(5-methyl-1H-indol-2-yl)carbonyl]piperidin-4-yl}propan-2-ol]
12 | COc1ccc2[nH]c(C(=O)N3CCC(CC(C)(C)O)CC3)cc2c1 [Example 25, 1-{1-[(5-methoxy-1H-indol-2-yl)carbonyl]piperidin-4-yl}-2-methylpropan-2-ol]
31 | CC(O)CC1CCN(C(=O)c2cc3ccccc3[nH]2)CC1 (stereo not drawn) [Example 30, 1-[1-(1H-indol-2-ylcarbonyl)piperidin-4-yl]propan-2-ol]

tested on: not given; assay: not given; conditions: not given

melting point [°C] | Compound
178 to 180 | CC(C)(O)CC1CCN(C(=O)c2cc3cc(Cl)ccc3[nH]2)CC1 [Example 1, 1-{1-[(5-chloro-1H-indol-2-yl)carbonyl]piperidin-4-yl}-2-methylpropan-2-ol]
153 to 163 | CC(C)(O)CC1CCN(C(=O)c2cc3ccccc3[nH]2)CC1 [Example 9, 1-[1-(1H-indol-2-ylcarbonyl)piperidin-4-yl]-2-methylpropan-2-ol]
212 to 219 | CC(C)(O)CC1CCN(C(=O)c2cc3cc(O)ccc3[nH]2)CC1 [Example 15, 2-{[4-(2-hydroxy-2-methylpropyl)piperidin-1-yl]carbonyl}-1H-indol-5-ol]
166 to 168 | Cc1ccc2[nH]c(C(=O)N3CCC(CC(C)(C)O)CC3)c(C)c2c1 [Example 17, 1-{1-[(3,5-dimethyl-1H-indol-2-yl)carbonyl]piperidin-4-yl}-2-methylpropan-2-ol]
223 to 225 | CC(C)(O)CC1CCN(C(=O)c2cc3cc([N+](=O)[O-])ccc3[nH]2)CC1 [Example 20, 2-methyl-1-{1-[(5-nitro-1H-indol-2-yl)carbonyl]piperidin-4-yl}propan-2-ol]
163 to 165 | Cc1ccc2[nH]c(C(=O)N3CCC(CCO)CC3)cc2c1 [Example 22, 2-{1-[(5-methyl-1H-indol-2-yl)carbonyl]piperidin-4-yl}ethanol]
149 to 150 | Cc1ccc2[nH]c(C(=O)N3CCC(CC(C)(C)O)CC3)cc2c1 [Example 24, 2-methyl-1-{1-[(5-methyl-1H-indol-2-yl)carbonyl]piperidin-4-yl}propan-2-ol]
163 to 167 | CC(O)CC1CCN(C(=O)c2cc3ccccc3[nH]2)CC1 (stereo not drawn) [Example 30, 1-[1-(1H-indol-2-ylcarbonyl)piperidin-4-yl]propan-2-ol]

tested on: 5α-reductase; assay: not given; conditions: patients with BPH, after administration; cited from earlier work

Compound | concentration of DHT in the prostate relative to the concentration before the administration | increase of concentration of testosterone in the prostate [fold]
CC(C)(C)NC(=O)[C@H]1CC[C@H]2[C@@H]3CC[C@H]4NC(=O)C=C[C@]4(C)[C@H]3CC[C@]12C [finasteride] | about 20% | 4
